target: T1, Androgen Receptor (AR) (Homo sapiens, UniProt P10275, T878A); assay: LNCaP Androgen Receptor Down-regulation Cell Assay (immunofluorescence end point); type: cell-based; conditions: LNCaP prostate carcinoma cells, compound incubation 20-22 hours, 50% reduction of the AR signal; read-out: Androgen Receptor Down-regulation Assay (a) IC50/μM
T1 construct: cell based immuno-fluorescence assay using the LNCaP prostate epithelial cell line; endogenous in cells; host or cells: LNCaP clone FGC (ATCC CRL-1740)
T1 sequence (P10275 1-920 T878A): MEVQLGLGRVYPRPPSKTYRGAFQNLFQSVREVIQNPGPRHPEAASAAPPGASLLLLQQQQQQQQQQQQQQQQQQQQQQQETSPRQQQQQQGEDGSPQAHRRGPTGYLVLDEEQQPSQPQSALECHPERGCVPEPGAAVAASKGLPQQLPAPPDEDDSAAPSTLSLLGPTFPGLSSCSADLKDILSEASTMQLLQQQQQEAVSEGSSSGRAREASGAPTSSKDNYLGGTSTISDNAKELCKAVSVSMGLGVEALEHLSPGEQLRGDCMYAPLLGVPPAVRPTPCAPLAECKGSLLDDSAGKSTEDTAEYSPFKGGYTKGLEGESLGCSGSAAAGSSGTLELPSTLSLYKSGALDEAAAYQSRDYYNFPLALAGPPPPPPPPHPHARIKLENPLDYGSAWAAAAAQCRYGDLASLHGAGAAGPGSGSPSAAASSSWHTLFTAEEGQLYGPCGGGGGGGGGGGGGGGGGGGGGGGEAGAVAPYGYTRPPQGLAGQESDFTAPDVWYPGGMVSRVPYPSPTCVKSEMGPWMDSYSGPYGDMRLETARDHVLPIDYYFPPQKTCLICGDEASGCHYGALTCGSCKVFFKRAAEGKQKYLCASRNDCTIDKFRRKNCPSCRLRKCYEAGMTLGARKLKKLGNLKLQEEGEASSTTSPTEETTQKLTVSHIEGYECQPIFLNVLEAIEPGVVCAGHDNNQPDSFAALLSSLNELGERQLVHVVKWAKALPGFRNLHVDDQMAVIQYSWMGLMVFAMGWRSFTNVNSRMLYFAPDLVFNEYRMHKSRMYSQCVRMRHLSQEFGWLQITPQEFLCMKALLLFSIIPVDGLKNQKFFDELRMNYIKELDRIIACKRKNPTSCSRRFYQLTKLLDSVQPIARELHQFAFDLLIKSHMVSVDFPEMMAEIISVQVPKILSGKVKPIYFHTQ
Outline: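 LNCaP cells in medium with 5% charcoal-stripped FBS were plated overnight, then treated with a compound dilution series for 20-22 h at 37° C. After fixation, permeabilisation and immunostaining, AR-associated green fluorescence was quantified by laser-scanning microplate cytometry; AR down-regulation expressed as IC50 from fitted dose-response curves.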

Row | SMILES | DC50
1 | C[C@@H]1CN(c2ccc3nnc(C(F)(F)F)n3n2)[C@@H](C)CN1Cc1cccnc1 [Example 223, 6-[(2S,5R)-2,5-dimethyl-4-(pyridin-3-ylmethyl)piperazin-1-yl]-3-(trifluoromethyl)[1,2,4]triazolo[4,3-b]pyridazine] | 4.7 µM
2 | Fc1ccccc1CCN1CCN(c2ccc3nnc(C(F)(F)F)n3n2)CC1 [Example 229, 6-[4-[2-(2-fluorophenyl)ethyl]piperazin-1-yl]-3-(trifluoromethyl)[1,2,4]triazolo[4,3-b]pyridazine] | 1.9 µM
3 | Fc1ccc(CCN2CCN(c3ccc4nnc(C(F)(F)F)n4n3)CC2)cc1 [Example 230] | 2.1 µM
4 | FC(F)(F)c1nnc2ccc(N3CCN(CCc4ccc(Cl)cc4)CC3)nn12 [Example 231] | 2.1 µM
5 | FC(F)(F)c1nnc2ccc(N3CCN(CCc4ccccc4Cl)CC3)nn12 [Example 232] | 3.6 µM
6 | FC(F)(F)c1nnc2ccc(N3CCN(CCc4cccc(Cl)c4)CC3)nn12 [Example 233] | 1.5 µM
7 | Fc1cccc(CCN2CCN(c3ccc4nnc(C(F)(F)F)n4n3)CC2)c1 [Example 234] | 2 µM
8 | N#Cc1ccc(CCN2CCN(c3ccc4nnc(C(F)(F)F)n4n3)CC2)cc1 [Example 235] | 1.9 µM
9 | N#Cc1ccc(CN2CCN(c3ccc4nnc(C(F)F)n4n3)CC2)cc1 [Example 237] | 5.3 µM
10 | N#Cc1cccc(CN2CCN(c3ccc4nnc(C(F)F)n4n3)CC2)c1 [Example 238] | 5 µM
11 | CC(F)(F)c1nnc2ccc(N3CCN(Cc4cccc(C#N)c4)CC3)nn12 [Example 242] | 7.4 µM
12 | CC(F)(F)c1nnc2ccc(N3CCN(Cc4cccc(F)c4)CC3)nn12 [Example 243] | 3.7 µM
13 | CCC(F)(F)c1nnc2ccc(N3CCN(Cc4cccc(C#N)c4)CC3)nn12 [Example 246] | 23 µM
14 | FC(F)c1nnc2ccc(N3CCN(Cc4cccc(Cl)c4)CC3)nn12 [Example 248] | 1.7 µM
15 | Fc1ccc(CN2CCN(c3ccc4nnc(C(F)F)n4n3)CC2)c(F)c1 [Example 249] | 6.3 µM
16 | Fc1ccc(CN2CCN(c3ccc4nnc(C(F)F)n4n3)CC2)cc1F [Example 250] | 4.9 µM
17 | Fc1cc(F)cc(CN2CCN(c3ccc4nnc(C(F)F)n4n3)CC2)c1 [Example 251] | 9.3 µM
18 | Fc1cccc(F)c1CN1CCN(c2ccc3nnc(C(F)F)n3n2)CC1 [Example 252] | 8.9 µM
19 | COc1ccc(CN2CCN(c3ccc4nnc(C(F)F)n4n3)CC2)c(F)c1 [Example 253] | 3.7 µM
20 | FC(F)c1nnc2ccc(N3CCN(Cc4cccc(C(F)(F)F)c4)CC3)nn12 [Example 255] | 1.8 µM
21 | Fc1cccc(CN2CCN(c3ccc4nnc(C(F)F)n4n3)CC2)c1F [Example 256] | 7.4 µM

Row | SMILES | DC50
22 | COc1cc(CN2CCN(c3ccc4nnc(C(F)F)n4n3)CC2)ccc1F [Example 257] | 9 µM
23 | COc1ccc(F)c(CN2CCN(c3ccc4nnc(C(F)F)n4n3)CC2)c1 [Example 258] | 6.4 µM
24 | Fc1ccc(F)c(CN2CCN(c3ccc4nnc(C(F)F)n4n3)CC2)c1 [Example 259] | 4.8 µM
25 | N#Cc1cc(CN2CCN(c3ccc4nnc(C(F)F)n4n3)CC2)ccc1F [Example 260] | 5.6 µM
26 | COc1ccc(CN2CCN(c3ccc4nnc(C(F)F)n4n3)CC2)cc1F [Example 261] | 7.9 µM
27 | N#Cc1ccc(CN2CCN(c3ccc4nnc(C(F)F)n4n3)CC2)c(F)c1 [Example 262] | 25 µM
28 | FC(F)c1nnc2ccc(N3CCN(Cc4csc5ccccc45)CC3)nn12 [Example 264] | 0.95 µM
29 | FC(F)c1nnc2ccc(N3CCN(Cc4c[nH]c5ccccc45)CC3)nn12 [Example 265] | 3.8 µM
30 | FC(F)c1nnc2ccc(N3CCC(c4c[nH]c5ccccc45)CC3)nn12 [Example 266, 3-(difluoromethyl)-6-[4-(1H-indol-3-yl)piperidin-1-yl][1,2,4]triazolo[4,3-b]pyridazine] | 0.63 µM
31 | COc1cccc(OC2CCN(c3ccc4nnc(C(F)F)n4n3)CC2)c1 [Example 267] | 0.85 µM
32 | Fc1cccc(OC2CCN(c3ccc4nnc(C(F)F)n4n3)CC2)c1 [Example 268] | 0.91 µM
33 | C[C@H](c1ccc(F)cc1)N1CCN(c2ccc3nnc(C(F)F)n3n2)CC1 [Example 269, 3-(difluoromethyl)-6-[4-[(1R)-1-(4-fluorophenyl)ethyl]piperazin-1-yl][1,2,4]triazolo[4,3-b]pyridazine] | 2 µM
34 | CC(C)(c1ccc(F)cc1)N1CCN(c2ccc3nnc(C(F)F)n3n2)CC1 [Example 271, 3-(difluoromethyl)-6-[4-[1-(4-fluorophenyl)-1-methylethyl]piperazin-1-yl][1,2,4]triazolo[4,3-b]pyridazine] | 1.8 µM
35 | Fc1cccc(CN2CC=C(c3ccc4nnc(C(F)(F)F)n4n3)CC2)c1 [Example 272, 6-[1-(3-fluorobenzyl)-1,2,3,6-tetrahydropyridin-4-yl]-3-(trifluoromethyl)-[1,2,4]triazolo[4,3-b]pyridazine] | 1.8 µM
36 | Fc1ccc(-c2nc(N3CCN(c4ccc5nnc(C(F)(F)F)n5n4)CC3)no2)cc1 [Example 274] | 6.1 µM
37 | FC(F)(F)c1nnc2ccc(N3CCN(c4noc(-c5ccccc5)n4)CC3)nn12 [Example 275] | 6 µM
38 | N#Cc1ccc(-c2nc(N3CCN(c4ccc5nnc(C(F)(F)F)n5n4)CC3)no2)cc1 [Example 277] | 2 µM
39 | N#Cc1ccc2[nH]cc(CN3CCN(c4ccc5nnc(C(F)(F)F)n5n4)CC3)c2c1 [Example 278] | 0.65 µM
40 | FC(F)(F)c1nnc2ccc(N3CCN(Cc4c[nH]c5ccc(Cl)cc45)CC3)nn12 [Example 280] | 0.78 µM
41 | FC(F)(F)c1nnc2ccc(N3CCN(Cc4c[nH]c5ccc(Br)cc45)CC3)nn12 [Example 281] | 0.8 µM
42 | FC(F)(F)c1nnc2ccc(N3CCN(Cc4c[nH]c5cccc(Cl)c45)CC3)nn12 [Example 282] | 2.4 µM

Row | SMILES | DC50
43 | Fc1ccc2[nH]cc(CN3CCN(c4ccc5nnc(C(F)(F)F)n5n4)CC3)c2c1 [Example 283] | 0.78 µM
44 | Fc1ccc2c(CN3CCN(c4ccc5nnc(C(F)(F)F)n5n4)CC3)c[nH]c2c1 [Example 284] | 0.98 µM
45 | FC(F)(F)c1nnc2ccc(N3CCN(Cc4n[nH]c5ccccc45)CC3)nn12 [Example 285, 6-[4-(1H-indazol-3-ylmethyl)piperazin-1-yl]-3-(trifluoromethyl)[1,2,4]triazolo[4,3-b]pyridazine] | 2.7 µM
46 | N#Cc1ccc2[nH]cc(CN3CCN(c4ccc5nnc(C(F)F)n5n4)CC3)c2c1 [Example 286] | 8.5 µM
47 | FC(F)c1nnc2ccc(N3CCN(Cc4c[nH]c5ccc(Cl)cc45)CC3)nn12 [Example 287] | 2 µM
48 | FC(F)c1nnc2ccc(N3CCN(Cc4c[nH]c5ccc(Br)cc45)CC3)nn12 [Example 288] | 3.3 µM
49 | FC(F)c1nnc2ccc(N3CCN(Cc4c[nH]c5cccc(Cl)c45)CC3)nn12 [Example 289] | 2.7 µM
50 | Fc1ccc2[nH]cc(CN3CCN(c4ccc5nnc(C(F)F)n5n4)CC3)c2c1 [Example 290] | 5.8 µM
51 | FC(F)c1nnc2ccc(N3CCN(Cc4c(Cl)[nH]c5ccccc45)CC3)nn12 [Example 291] | > 9.7 µM
52 | Fc1ccc2c(CN3CCN(c4ccc5nnc(C(F)F)n5n4)CC3)c[nH]c2c1 [Example 292] | 7 µM
53 | FC(F)(F)c1nnc2ccc(N3CCC(COC4CCOCC4)CC3)nn12 [Example 294, 6-[4-[(tetrahydro-2H-pyran-4-yloxy)methyl]piperidin-1-yl]-3-(trifluoromethyl)[1,2,4]triazolo[4,3-b]pyridazine] | 9.5 µM
54 | FC(F)(F)c1nnc2ccc(N3CCC(COCC4CC4)CC3)nn12 [Example 295] | 3.4 µM
55 | COCCOCC1CCN(c2ccc3nnc(C(F)(F)F)n3n2)CC1 [Example 296] | 2.1 µM
56 | CC(C)OCC1CCN(c2ccc3nnc(C(F)(F)F)n3n2)CC1 [Example 298] | 5.7 µM
57 | FC(F)(F)c1nnc2ccc(N3CCC(c4noc(-c5cccc(Cl)c5)n4)CC3)nn12 [Example 299] | 0.84 µM
58 | Fc1ccc(-c2nc(C3CCN(c4ccc5nnc(C(F)(F)F)n5n4)CC3)no2)cc1 [Example 300] | 1 µM
59 | FC(F)(F)c1nnc2ccc(N3CCC(c4noc(-c5ccccc5)n4)CC3)nn12 [Example 301] | 1.8 µM
60 | Fc1cccc(-c2nc(C3CCN(c4ccc5nnc(C(F)(F)F)n5n4)CC3)no2)c1 [Example 302] | 1.1 µM
61 | N#Cc1cccc(-c2nc(C3CCN(c4ccc5nnc(C(F)(F)F)n5n4)CC3)no2)c1 [Example 303] | 5.8 µM

Source: patent publication US8003649B2 (AstraZeneca AB, priority 2007, dated 2011)
